From patent US10375956B2, “Herbicidally active 2-(substituted-phenyl)-cyclopentane-1,3-dione compounds and derivatives thereof” (Syngenta Limited, priority 2013, dated 2019)

Tests used:
Assay in all cases: Test 2 glasshouse assay (IF50 formulation, X-77), post-emergence herbicidal activity
Assay type in all cases: in vivo
[1] = system: Beta vulgaris (BEAVA, sugarbeet); conditions: 360 h, 15 DAA, visual score, read-out: Post-emergence herbicidal activity (percentage phytotoxicity) BEAVA; for plant injury at 250 g/ha: application rate 250 g/ha; for plant injury at 30 g/ha: application rate 30 g/ha; for plant injury at 125 g/ha: application rate 125 g/ha
In short: (§1)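 Plants grown ~12 days (range 10-13) in glasshouse (cool species 20/16° C., warm 24/18° C. day/night; 16 h light; 65% humidity), then sprayed post-emergence with IF50 formulation in aqueous 0.2% v/v X-77. Visual percentage phytotoxicity scored 15 days after application (100% = total damage, 0% = none).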

[2] = system: Brassica napus (BRSNN, rape); conditions: 360 h, 15 DAA, visual score, read-out: Post-emergence herbicidal activity (percentage phytotoxicity) BRSNN; for plant injury at 250 g/ha: application rate 250 g/ha; for plant injury at 30 g/ha: application rate 30 g/ha; for plant injury at 125 g/ha: application rate 125 g/ha
In short: as §1

[3] = system: Glycine max (GLXMA, soybean); conditions: 360 h, 15 DAA, visual score, read-out: Post-emergence herbicidal activity (percentage phytotoxicity) GLXMA; for plant injury at 250 g/ha: application rate 250 g/ha; for plant injury at 30 g/ha: application rate 30 g/ha; for plant injury at 125 g/ha: application rate 125 g/ha
In short: as §1

[4] = system: Alopecurus myosuroides (ALOMY); conditions: 360 h, 15 DAA, visual score, read-out: Post-emergence herbicidal activity (percentage phytotoxicity) ALOMY; for pest or weed control at 250 g/ha: application rate 250 g/ha; for pest or weed control at 30 g/ha: application rate 30 g/ha; for pest or weed control at 125 g/ha: application rate 125 g/ha
Protocol: (§2) Seeds of a variety of monocotyledonous and dicotyledonous test plants are sown in standard soil in pots. The plants are cultivated for one day (for pre-emergence) or for about 12 days (for post-emergence) under controlled conditions in a glasshouse (warm climate species at 24/18° C., cool climate species at 20/16° C., both at day/night; 16 hours light; 65% humidity).
(§3) An “instant formulation”, known as the “IF50”, containing 50 g/liter (i.e. 5% w/v) of the “technical” (i.e. unformulated) active ingredient is prepared by dissolving the active ingredient in a mixture of organic solvents and emulsifier, details of which are provided in the Table below. This IF50 is then mixed with a small, variable amount of acetone to aid dissolution, before addition of a 0.2% v/v aqueous solution of the adjuvant X-77 (which is a mixture of alkyl aryl polyoxyethylene glycols and free fatty acids in isopropanol, CAS Registry number 11097-66-8), as the aqueous diluent, to form an aqueous spray solution which contains a predetermined concentration of the active ingredient (which varies depending on the application rate of the active ingredient to the plants) and 0.2% v/v of the adjuvant X-77. This aqueous spray solution is then sprayed onto the plants, after one day's cultivation (for pre-emergence), or after about 12 days' cultivation (range=10-13 days) (for post-emergence).
(§4) The test plants are then grown on, in a glasshouse (greenhouse) under controlled conditions (warm climate species at 24/18° C., cool climate species at 20/16° C., both at day/night; 16 hours light; 65% humidity) and are watered twice daily. 15 days after application of the test herbicide (15DAA) (for post-emergence), and 20 days after application of the test herbicide (20DAA) (for pre-emergence), the test plants are evaluated visually, and an assessed percentage phytotoxicity score is given for each herbicidal application on each plant species (with 100%=total damage to plant; 0%=no damage to plant).
(§5) Cool climate (“cool season”) grassy monocotyledonous weeds: Alopecurus myosuroides (ALOMY), Avena fatua (AVEFA), Lolium perenne (LOLPE).

[5] = system: Avena fatua (AVEFA); conditions: 360 h, 15 DAA, visual score, read-out: Post-emergence herbicidal activity (percentage phytotoxicity) AVEFA; for pest or weed control at 250 g/ha: application rate 250 g/ha; for pest or weed control at 30 g/ha: application rate 30 g/ha; for pest or weed control at 125 g/ha: application rate 125 g/ha
Protocol: as §2, §3, §4, §5

[6] = system: Lolium perenne (LOLPE); conditions: 360 h, 15 DAA, visual score, read-out: Post-emergence herbicidal activity (percentage phytotoxicity) LOLPE; for pest or weed control at 250 g/ha: application rate 250 g/ha; for pest or weed control at 30 g/ha: application rate 30 g/ha; for pest or weed control at 125 g/ha: application rate 125 g/ha
Protocol: as §2, §3, §4, §5

SMILES	plant injury at 250 g/ha [1] [%]	plant injury at 250 g/ha [2] [%]	plant injury at 250 g/ha [3] [%]	pest or weed control at 250 g/ha [4] [%]	pest or weed control at 250 g/ha [5] [%]	pest or weed control at 250 g/ha [6] [%]	plant injury at 30 g/ha [1] [%]	plant injury at 125 g/ha [1] [%]	plant injury at 30 g/ha [2] [%]	plant injury at 125 g/ha [2] [%]	plant injury at 30 g/ha [3] [%]	plant injury at 125 g/ha [3] [%]	pest or weed control at 30 g/ha [4] [%]	pest or weed control at 125 g/ha [4] [%]	pest or weed control at 30 g/ha [5] [%]	pest or weed control at 125 g/ha [5] [%]	pest or weed control at 30 g/ha [6] [%]	pest or weed control at 125 g/ha [6] [%]	further results
C#CCC1CC(=O)C(c2cc(-c3ncc(Cl)cn3)ccc2C)C1=O (stereo not drawn) [Compound A19]	0	10	20	40	10	10	–	–	–	–	–	–	–	–	–	–	–	–	–
C#CCC1CC(=O)C(c2c(Cl)cc(-c3ccc(F)c(F)c3)cc2OC)C1=O (stereo not drawn) [Compound A13]	–	–	–	–	–	–	60	70	70	80	20	30	30	100	30	80	10	80	–
C#CCC1C(=O)C(c2c(C)cc(C)cc2C)C(=O)C1CC#C (stereo not drawn) [Compound A42]	–	–	–	–	–	–	–	0	–	20	–	10	–	50	–	0	–	80	plant injury at 500 g/ha ([1]; application rate 500 g/ha): 30%; plant injury at 500 g/ha ([2]; application rate 500 g/ha): 80%; plant injury at 500 g/ha ([3]; application rate 500 g/ha): 10%; pest or weed control at 500 g/ha ([4]; application rate 500 g/ha): 70%; pest or weed control at 500 g/ha ([5]; application rate 500 g/ha): 50%; pest or weed control at 500 g/ha ([6]; application rate 500 g/ha): 100%
C#CCC1CC(=O)C(c2cc(-c3ncc(Cl)cc3F)ccc2C)C1=O (stereo not drawn) [Compound A18]	50	20	40	30	30	10	–	–	–	–	–	–	–	–	–	–	–	–	–
C#CCC1CC(=O)C(c2c(C)cc(C)cc2C)C1=O (stereo not drawn) [Compound A23]	–	–	–	–	–	–	–	30	–	70	–	0	–	90	–	80	–	90	–
C#CCC1CC(=O)C(c2c(Cl)cc(-c3ccc(Cl)cn3)cc2OC)C1=O (stereo not drawn) [Compound A10]	80	80	70	100	100	90	60	–	80	–	40	–	50	–	60	–	30	–	–
C#CCC1CC(OC(C)=O)=C(c2c(C)cc(-c3ccc(F)cc3)cc2C)C1=O (stereo not drawn) [Compound A45]	–	–	–	–	–	–	70	70	50	80	0	10	70	90	70	90	80	100	–
C#CCC1CC(=O)C(c2c(F)cc(-c3ccc(Cl)cc3)cc2Cl)C1=O (stereo not drawn) [Compound A6, 2-[2-chloro-4-(4-chlorophenyl)-6-fluorophenyl]-4-prop-2-ynylcyclopentane-1,3-dione]	40	40	10	100	80	70	–	20	–	20	–	10	–	80	–	70	–	30	–
C#CCC1CC(=O)C(c2c(F)cc(-c3ccc(F)c(F)c3)cc2OC)C1=O (stereo not drawn) [Compound A22]	–	–	–	–	–	–	0	0	50	70	0	40	50	70	0	70	10	50	–
C#CCC1CC(=O)C(c2c(C)cc(-c3ccc(F)cc3)cc2C)C1=O (stereo not drawn) [Compound A1, 2-[4-(4-fluorophenyl)-2,6-dimethyl-phenyl]-4-prop-2-ynylcyclopentane-1,3-dione]	–	–	–	–	–	–	70	70	70	70	0	0	60	80	70	100	70	80	–
C#CCC1CC(=O)C(c2c(C)cc(-c3ncc(Cl)cc3F)cc2C)C1=O (stereo not drawn) [Compound A3]	70	70	70	100	100	90	40	–	40	–	20	–	80	–	40	–	30	–	–
C#CCC1CC(=O)C(c2cc(-c3ccc(Cl)cc3Cl)ccc2C)C1=O (stereo not drawn) [Compound A15]	40	60	10	40	10	20	–	–	–	–	–	–	–	–	–	–	–	–	–
C#CCC1CC(=O)C(c2c(CC)cc(C)cc2CC)C1=O (stereo not drawn) [Compound A25, 2-(2,6-diethyl-4-methyl-phenyl)-4-(prop-2-ynyl)-cyclopentane-1,3-dione]	–	–	–	–	–	–	0	0	0	20	0	0	50	80	80	100	90	100	–
